The supplement of paper PMC12463676, “Small-molecule dissolution of stress granules by redox modulation benefits ALS models” (Nature Chemical Biology, 2025)

Tests used:
[1] = compound: NC(=O)CCCCC1CCSS1 [lipoamide]; assay: thermal stability z-score vs DMSO; higher = more thermally stabilized by treatment; conditions: HeLa, lipoamide concentration 100 µM
Protocol: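 Cellular thermal proteome profiling in HeLa cells. Cells were treated with 100 µM lipoamide for 1 h, with or without 1 mM arsenate for a further 1 h, then heated to ten temperatures (37-66.3 °C), and soluble protein was quantified by TMT mass spectrometry relative to 0.1% DMSO controls. The thermal stability score (sum of log2 fold changes minus the abundance score) was transformed to a z-score; mean of n = 3 experiments.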

[2] = compound: O=[As]([O-])(O)O.[K+] [potassium arsenate]; assay: as above; conditions: HeLa; arsenate concentration 1 mM
Protocol: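 Cellular thermal proteome profiling in HeLa cells treated with 1 mM arsenate for 1 h (DMSO pretreatment), heated to ten temperatures (37-66.3 °C). Soluble protein was quantified by TMT mass spectrometry relative to DMSO controls; the thermal stability score was transformed to a z-score; mean of n = 3 experiments.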

[3] = arsenate co-treatment: 1 mM arsenate 1 h
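Note: each temperature applied for 3 min, abundance score taken as mean log2 fold change at the two lowest temperatures, z-score obtained by mean subtraction and division by SD.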

UniProt O75368, sequence (O75368 whole entry): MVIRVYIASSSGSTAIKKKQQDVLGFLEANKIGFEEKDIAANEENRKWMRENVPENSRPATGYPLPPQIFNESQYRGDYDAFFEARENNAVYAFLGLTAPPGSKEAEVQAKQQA
UniProt P06396, sequence (P06396 whole entry): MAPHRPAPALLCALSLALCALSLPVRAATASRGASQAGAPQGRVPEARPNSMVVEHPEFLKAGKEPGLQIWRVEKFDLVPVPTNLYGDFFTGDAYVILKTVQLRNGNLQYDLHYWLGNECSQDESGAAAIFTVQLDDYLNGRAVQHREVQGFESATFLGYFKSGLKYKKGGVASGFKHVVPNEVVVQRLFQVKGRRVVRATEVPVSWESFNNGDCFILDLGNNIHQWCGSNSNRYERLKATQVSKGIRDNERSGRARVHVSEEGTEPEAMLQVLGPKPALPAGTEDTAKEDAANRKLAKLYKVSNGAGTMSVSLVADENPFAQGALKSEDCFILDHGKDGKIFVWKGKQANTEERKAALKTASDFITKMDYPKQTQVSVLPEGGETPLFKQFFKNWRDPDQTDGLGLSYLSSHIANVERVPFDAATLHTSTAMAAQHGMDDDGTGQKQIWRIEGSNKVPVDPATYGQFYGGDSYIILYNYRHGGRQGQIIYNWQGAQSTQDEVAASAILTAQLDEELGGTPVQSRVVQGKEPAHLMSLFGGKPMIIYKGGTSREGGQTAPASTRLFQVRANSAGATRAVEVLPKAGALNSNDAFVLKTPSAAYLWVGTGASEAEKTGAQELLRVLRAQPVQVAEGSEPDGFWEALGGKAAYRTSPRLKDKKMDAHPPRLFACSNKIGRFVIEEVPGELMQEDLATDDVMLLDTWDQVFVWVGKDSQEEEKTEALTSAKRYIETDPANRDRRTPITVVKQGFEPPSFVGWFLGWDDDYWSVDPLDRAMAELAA
UniProt Q9NTM9, sequence (Q9NTM9 whole entry): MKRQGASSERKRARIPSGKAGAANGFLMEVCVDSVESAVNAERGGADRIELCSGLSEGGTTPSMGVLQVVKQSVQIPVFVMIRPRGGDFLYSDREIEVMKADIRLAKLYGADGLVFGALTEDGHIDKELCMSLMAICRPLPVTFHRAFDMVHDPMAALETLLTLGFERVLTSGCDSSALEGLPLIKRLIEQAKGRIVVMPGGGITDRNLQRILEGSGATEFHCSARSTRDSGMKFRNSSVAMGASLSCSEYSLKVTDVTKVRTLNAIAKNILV
UniProt Q9Y4D1, sequence (Q9Y4D1 whole entry): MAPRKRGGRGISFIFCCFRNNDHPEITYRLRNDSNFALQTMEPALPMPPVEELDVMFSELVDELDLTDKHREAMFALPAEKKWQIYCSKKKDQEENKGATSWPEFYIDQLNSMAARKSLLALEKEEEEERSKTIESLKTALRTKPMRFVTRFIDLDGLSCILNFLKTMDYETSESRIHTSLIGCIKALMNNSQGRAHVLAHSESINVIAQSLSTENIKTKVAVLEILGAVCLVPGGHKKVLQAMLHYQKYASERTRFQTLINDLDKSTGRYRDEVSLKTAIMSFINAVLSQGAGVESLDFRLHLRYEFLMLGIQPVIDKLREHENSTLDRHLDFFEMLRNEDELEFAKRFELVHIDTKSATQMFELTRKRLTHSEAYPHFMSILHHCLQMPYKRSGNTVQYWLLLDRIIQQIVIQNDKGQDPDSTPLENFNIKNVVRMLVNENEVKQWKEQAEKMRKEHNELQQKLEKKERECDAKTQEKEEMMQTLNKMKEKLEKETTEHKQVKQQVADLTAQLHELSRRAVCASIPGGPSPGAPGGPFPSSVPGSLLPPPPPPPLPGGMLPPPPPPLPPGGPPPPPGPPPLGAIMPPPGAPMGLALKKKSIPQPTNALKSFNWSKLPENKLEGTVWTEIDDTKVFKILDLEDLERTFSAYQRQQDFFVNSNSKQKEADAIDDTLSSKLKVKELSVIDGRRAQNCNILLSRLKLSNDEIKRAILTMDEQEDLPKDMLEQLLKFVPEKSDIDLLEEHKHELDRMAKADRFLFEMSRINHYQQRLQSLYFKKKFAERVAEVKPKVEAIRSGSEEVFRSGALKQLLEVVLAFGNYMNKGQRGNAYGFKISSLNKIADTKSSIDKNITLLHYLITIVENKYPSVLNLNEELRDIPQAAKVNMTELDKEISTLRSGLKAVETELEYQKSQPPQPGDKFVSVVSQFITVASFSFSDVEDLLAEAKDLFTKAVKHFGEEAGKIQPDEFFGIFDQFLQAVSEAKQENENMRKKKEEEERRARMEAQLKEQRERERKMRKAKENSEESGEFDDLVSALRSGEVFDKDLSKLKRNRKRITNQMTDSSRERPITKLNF
UniProt Q99704, sequence (Q99704 whole entry): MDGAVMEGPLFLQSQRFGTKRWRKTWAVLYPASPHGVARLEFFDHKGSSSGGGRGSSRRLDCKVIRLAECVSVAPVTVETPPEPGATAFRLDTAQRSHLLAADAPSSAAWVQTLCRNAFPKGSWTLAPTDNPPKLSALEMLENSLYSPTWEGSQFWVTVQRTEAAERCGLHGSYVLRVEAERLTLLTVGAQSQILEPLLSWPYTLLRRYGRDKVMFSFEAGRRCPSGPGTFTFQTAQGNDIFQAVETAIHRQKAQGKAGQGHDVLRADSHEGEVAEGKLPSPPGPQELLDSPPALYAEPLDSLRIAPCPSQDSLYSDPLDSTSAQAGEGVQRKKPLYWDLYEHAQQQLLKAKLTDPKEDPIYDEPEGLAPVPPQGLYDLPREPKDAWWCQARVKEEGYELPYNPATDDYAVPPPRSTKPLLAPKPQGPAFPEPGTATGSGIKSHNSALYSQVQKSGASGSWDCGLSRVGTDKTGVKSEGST
UniProt Q8NDV7, sequence (Q8NDV7 whole entry): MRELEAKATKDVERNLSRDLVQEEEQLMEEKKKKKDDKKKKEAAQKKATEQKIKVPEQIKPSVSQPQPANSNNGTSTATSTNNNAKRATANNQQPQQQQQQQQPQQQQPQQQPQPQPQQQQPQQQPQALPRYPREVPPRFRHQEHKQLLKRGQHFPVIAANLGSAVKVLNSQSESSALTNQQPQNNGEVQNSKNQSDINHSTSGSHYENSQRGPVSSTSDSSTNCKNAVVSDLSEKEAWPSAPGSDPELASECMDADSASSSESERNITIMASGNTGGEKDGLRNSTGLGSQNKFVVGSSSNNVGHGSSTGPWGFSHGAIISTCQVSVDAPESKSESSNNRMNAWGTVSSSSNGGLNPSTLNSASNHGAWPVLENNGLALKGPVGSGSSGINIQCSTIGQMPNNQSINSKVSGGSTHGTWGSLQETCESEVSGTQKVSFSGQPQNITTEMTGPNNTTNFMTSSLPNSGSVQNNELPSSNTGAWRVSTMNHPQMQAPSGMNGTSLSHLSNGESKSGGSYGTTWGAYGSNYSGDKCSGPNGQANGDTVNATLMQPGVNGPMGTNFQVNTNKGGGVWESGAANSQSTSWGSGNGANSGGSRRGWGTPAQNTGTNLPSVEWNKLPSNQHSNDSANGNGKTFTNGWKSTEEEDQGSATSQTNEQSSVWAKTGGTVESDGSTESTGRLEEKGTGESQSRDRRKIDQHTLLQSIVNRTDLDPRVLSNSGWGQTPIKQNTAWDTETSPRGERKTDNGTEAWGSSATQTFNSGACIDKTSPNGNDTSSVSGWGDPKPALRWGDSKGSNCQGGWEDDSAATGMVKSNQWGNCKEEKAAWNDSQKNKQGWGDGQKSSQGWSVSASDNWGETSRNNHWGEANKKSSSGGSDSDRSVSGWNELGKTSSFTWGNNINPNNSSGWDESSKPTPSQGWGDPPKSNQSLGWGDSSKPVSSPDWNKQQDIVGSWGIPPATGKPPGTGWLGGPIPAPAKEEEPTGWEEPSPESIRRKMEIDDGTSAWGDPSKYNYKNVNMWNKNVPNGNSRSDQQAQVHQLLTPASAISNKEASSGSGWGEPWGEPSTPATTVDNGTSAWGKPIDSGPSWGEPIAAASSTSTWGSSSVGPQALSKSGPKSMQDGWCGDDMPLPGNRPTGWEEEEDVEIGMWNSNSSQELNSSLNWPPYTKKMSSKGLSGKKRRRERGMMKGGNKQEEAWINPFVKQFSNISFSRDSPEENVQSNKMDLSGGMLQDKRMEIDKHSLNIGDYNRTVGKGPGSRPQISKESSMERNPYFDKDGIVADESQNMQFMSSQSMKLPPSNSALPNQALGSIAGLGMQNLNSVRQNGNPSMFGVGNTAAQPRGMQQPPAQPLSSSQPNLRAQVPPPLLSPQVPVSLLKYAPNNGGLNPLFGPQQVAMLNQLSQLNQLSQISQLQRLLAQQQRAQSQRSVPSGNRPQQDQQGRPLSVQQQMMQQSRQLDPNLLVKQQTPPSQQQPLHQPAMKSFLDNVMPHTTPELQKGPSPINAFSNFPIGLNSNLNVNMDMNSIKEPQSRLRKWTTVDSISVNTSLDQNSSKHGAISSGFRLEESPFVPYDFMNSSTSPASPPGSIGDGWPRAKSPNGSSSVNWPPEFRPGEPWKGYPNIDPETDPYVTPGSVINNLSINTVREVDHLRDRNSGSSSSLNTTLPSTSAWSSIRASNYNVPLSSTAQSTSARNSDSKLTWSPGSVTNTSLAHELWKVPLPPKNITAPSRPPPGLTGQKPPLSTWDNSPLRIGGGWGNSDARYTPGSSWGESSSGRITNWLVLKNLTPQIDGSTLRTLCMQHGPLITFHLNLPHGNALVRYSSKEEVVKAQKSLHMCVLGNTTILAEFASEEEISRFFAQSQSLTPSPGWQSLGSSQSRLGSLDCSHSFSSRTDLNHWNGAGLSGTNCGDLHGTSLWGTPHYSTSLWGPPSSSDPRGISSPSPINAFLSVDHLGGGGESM
UniProt Q8N668, sequence (Q8N668 whole entry): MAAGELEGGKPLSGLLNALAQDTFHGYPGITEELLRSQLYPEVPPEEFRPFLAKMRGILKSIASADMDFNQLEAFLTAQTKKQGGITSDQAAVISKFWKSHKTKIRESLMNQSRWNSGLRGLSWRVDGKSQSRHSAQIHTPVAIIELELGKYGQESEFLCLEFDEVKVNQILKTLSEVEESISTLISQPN
UniProt Q9Y3D0, sequence (Q9Y3D0 whole entry): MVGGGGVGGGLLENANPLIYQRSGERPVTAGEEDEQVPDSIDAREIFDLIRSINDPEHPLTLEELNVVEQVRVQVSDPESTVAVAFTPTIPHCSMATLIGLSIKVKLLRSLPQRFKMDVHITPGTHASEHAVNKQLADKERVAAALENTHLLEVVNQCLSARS

Target | thermal stability z-score [1, 3] | thermal stability z-score ([1]; arsenate co-treatment: none) | thermal stability z-score [2]
MRPL19 (UniProt P49406) | -0.287 | -0.00717 | 0.274
UFSP2 (UniProt Q9NUQ7) | -1.19 | -0.381 | 0.0966
DAAM1 (UniProt Q9Y4D1) | -0.0152 | -0.226 | 0.17
DIS3L2 (UniProt Q8IYB7) | -0.225 | 0.566 | 0.155
DOK1 (UniProt Q99704) | 0.221 | -0.608 | -0.45
FAAP100 (UniProt Q0VG06) | 0.0838 | -0.0268 | -0.167
FTO (UniProt Q9C0B1) | -0.0697 | -0.447 | 1.38
SRSF6 (UniProt Q13247) | 1.75 | 1.04 | -0.598
CYC1 (UniProt P08574) | 0.0943 | -0.0471 | -1.31
SPHK1 (UniProt Q9NYA1) | 0.328 | 0.0728 | -0.0222
SRSF11 (UniProt Q05519) | 0.00966 | 0.41 | 0.0211
LEMD2 (UniProt Q8NC56) | -1.14 | -1.41 | -0.503
ZFR (UniProt Q96KR1) | 0.561 | 0.0288 | -0.37
PPM1G (UniProt O15355) | 0.2 | 0.916 | -0.0978
RPS15A (UniProt P62244) | 0.437 | 0.494 | -0.776
NDRG1 (UniProt Q92597) | -0.311 | -0.62 | -1.31
CUTC (UniProt Q9NTM9) | 0.342 | 0.211 | -0.934
PLD1 (UniProt Q13393) | -0.0197 | 0.0638 | 0.0184

Target | thermal stability z-score [1, 3] | thermal stability z-score ([1]; arsenate co-treatment: none) | thermal stability z-score [2]
TSNAX (UniProt Q99598) | -0.075 | -0.0638 | -0.215
POLG (UniProt P54098) | 0.0493 | 0.0533 | 0.0154
IFIT1 (UniProt P09914) | -0.626 | -0.265 | 0.419
WDSUB1 (UniProt Q8N9V3) | 0.698 | 0.878 | 0.867
SLC7A6OS (UniProt Q96CW6) | -0.344 | 0.403 | -0.000281
PRPF18 (UniProt Q99633) | -0.378 | 0.186 | -0.321
GRAMD3 (UniProt Q96HH9) | 0.155 | 0.0561 | -0.0476
IFIT2 (UniProt P09913) | -0.00168 | -0.0988 | -0.392
SH3BGRL (UniProt O75368) | 0.42 | 0.213 | 0.235
TAPBP (UniProt O15533) | -3.75 | -2.54 | 0.709
COMMD1 (UniProt Q8N668) | 0.0519 | 0.0285 | -0.333
TBC1D24 (UniProt Q9ULP9) | -0.346 | -0.491 | 0.0941
FAM96B (UniProt Q9Y3D0) | -0.113 | -0.0578 | -0.128
TNRC6A (UniProt Q8NDV7) | -0.105 | -0.121 | -0.416
GSN (UniProt P06396) | 0.0431 | -0.257 | 0.0381
PRKCI (UniProt P41743) | -0.507 | -0.312 | -0.914
MYO1C (UniProt O00159) | 1.12 | 0.329 | -1.94
